In the experiment the test system is T1, voltage-gated sodium channels (native Nav channels, isoform not identified).
T1 construct: native channels in isolated hippocampal CA1 pyramidal neurons
The experiment is described as follows: whole-cell patch clamp of TTX-sensitive sodium current, steps from -110 to -10 mV. Format: cell-based, Rattus norvegicus. A general note: In patch-clamp work, channel activity is measured electrically.

As usually defined, the IC50 is the concentration at which inhibition is half-maximal. Higher therefore signals lower potency. On to `CC(C)(C)c1ccc(CN2C3=NCCCCN3c3ccccc32)cc1` [DAB-19], for which the IC50 was 8.3 ± 1.4 µM.
